Source: PubChem BioAssay (NCI)
Values joined by “and” are separate entries in the source; they are usually repeats but may differ in a detail not shown here. Identical values can stand only once.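 Interpolation was linear, between the two tested concentrations surrounding the appropriate level; five concentrations were tested over 48 hours in 96-well plates. GI50: concentration for 50% inhibition of growth. TGI: total growth inhibition.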

Legend:
Assay in all cases: NCI anticancer screen, dose series, 48 h
[1] = tested on: NCI-H460 lung
[2] = tested on: OVCAR-8 ovarian
[3] = tested on: HOP-92 NSCLC
[4] = tested on: SNB-75 CNS
[5] = tested on: UACC-257 melanoma
[6] = tested on: SK-MEL-28 melanoma
[7] = tested on: NCI-H522 lung
[8] = tested on: OVCAR-3 ovarian

SMILES | GI50 [1] [µM] | TGI [1] | GI50 [2] [µM] | TGI [2] | GI50 [3] [µM] | TGI [3] [µM] | GI50 [4] | TGI [4] | GI50 [5] [µM] | TGI [5] [µM] | GI50 [6] | TGI [6] | GI50 [7] [µM] | TGI [7] | GI50 [8] [µM] | TGI [8] [µM]
CC(=O)N[C@@H]1CCC[C@H](C(=O)Nc2cc(-c3cnn4c3CC(C)(C)C4)c(Cl)cn2)C1 | < 0.0115 | 12.4 µM | < 0.012 | > 100 µM | < 0.01 | 0.0389 | < 0.01 µM | 0.029 µM | 0.0227 | 12 | < 0.0133 µM | 0.342 µM | 0.013 | 0.0588 µM |  | 
CC(=O)Nc1ccc(-n2cnc3cc(-c4ccc(OCCN5CCCCC5)cc4)ccc32)cc1 | 1.49 | 5.3 µM | 6.07 | 14.8 µM | 4.51 | 11.6 | 4.11 µM | 8.31 µM | 5.9 | 12 | 4.45 µM | 9.06 µM | 6.79 | 13.7 µM | 5.27 | 10.4
C=CC[PH+](c1ccccc1)c1ccccc1.C=CC[PH+](c1ccccc1)c1ccccc1.[Cl][Pt][Cl] | 12.8 | 30.1 µM | 5.25 | 31.5 µM | 3.27 | 12.4 | 11 µM | 25.1 µM | 11.9 | 31.6 | 7.69 µM | 21.3 µM | 2.68 | 8.19 µM | 3.21 | 10.4
COc1cc(/C=C\c2cccnc2Nc2ccccc2)cc(OC)c1OC | 3.61 | 26.7 µM | 6.7 | > 100 µM | 0.947 | 9.17 | 4.12 µM | 57.5 µM | 8.52 | 65.7 | 5.43 µM | 41 µM | 7.44 | 40.7 µM | 7.45 | 28.7
CCCCCCN(CCCCCC)CC(O)c1cccc2ccc(Cl)cc12 (stereo unspecified) | 6.63 | 19.6 µM | 15.7 | 32.7 µM | 3.21 | 19.5 | 7.43 µM | 20.6 µM | 12.9 | 28.7 | 12 µM | 24.3 µM | 7.94 | 23 µM | 13 | 26
COc1cc(C(=O)/C=C/c2c(C(F)(F)F)nc3sccn23)cc(OC)c1OC | 1.65 | 3.94 µM | 3.08 | 22.6 µM | 7 | 22.4 | 1.87 µM | 4.86 µM | 1.9 | 4.2 | 1.69 µM | 3.1 µM | 2.03 | 4.91 µM | 1.86 | 3.4
O=c1[nH]c(-c2ccccn2)nc2sc3c(c12)CCCCCC3 | 1.91 | > 100 µM | 4.33 | > 100 µM | 3.9 | > 100 | 85.1 µM | > 100 µM | > 100 | > 100 | 6.01 µM | > 100 µM | > 100 | > 100 µM | 8.51 | > 100
O=C(CC(C(=O)O)N1CCOCC1)c1ccccc1 (stereo unspecified) |  | 42.1 µM |  | 94.8 µM |  | 38 |  | 83.4 µM |  | 27.2 |  | 36.6 µM |  | > 100 µM |  | 35.7
CC(=O)C1=C(O)/C(=C\c2ccco2)OC1=O |  | > 10 µM |  | > 10 µM |  | > 10 |  | > 10 µM |  | > 10 |  | > 10 µM |  | > 10 µM |  | > 10
CCc1nc(N)nc(N)c1-c1ccc([N+](=O)[O-])c(Cl)c1 |  | > 100 µM |  | > 100 µM |  | > 100 |  | > 92.5 µM |  | > 100 |  | > 100 µM |  | > 52.9 µM |  | > 100
CC(C)(C)c1ccc(S(=O)(=O)N[C@H]2CC[C@H]3[C@@H]4CCc5cc(O)ccc5[C@H]4CC[C@]23C)cc1 | 1.98 | 4.16 µM | 2.02 | 4.59 µM | 1.53 | 4.2 | 2.08 µM | 6.38 µM | 2.45 | 6.78 | 1.71 µM | 3.18 µM | 2.5 | 7.13 µM | 2.09 | 3.95
C=C(C)[C@]12CC(C)C34OC(/C=C\C=C\CCCCCCCCC)(O[C@@H]1[C@@H]3[C@@H]1O[C@]1(CO)[C@@H](O)[C@]1(O)C(=O)C(C)=C[C@@H]41)O2 (stereo partly specified) | < 0.0001 | 16 µM |  | 31.8 µM |  | 22.4 |  | 22 µM |  | 28.5 |  | 25.6 µM |  | 30.7 µM |  | 16.3
CCNC(=O)Oc1ccc(/C(=C(\C)c2ccc(Cl)cc2)c2ccc(OCCN3CCCCC3)cc2)cc1 | 2.19 | 4.64 µM | 9.31 | 26 µM | 2.7 | 9.25 | 2.67 µM | 18.6 µM | 2.38 | 5.12 | 1.83 µM | 3.73 µM | 14.1 | 29.9 µM | 3.52 | 13.4
C[C@]12CC[C@@H]3c4ccc(O)cc4CC[C@H]3[C@@H]1CC[C@@H]2NS(=O)(=O)c1ccc(-c2ccccc2)cc1 | 3.05 | 9.48 µM | 4.69 | > 100 µM | 2.09 | 9.68 | 3.5 µM | 55.2 µM | 4.26 | 32.6 | 5.52 µM | 54.6 µM | 4.26 | 27.2 µM | 3.32 | 12.7
Cc1cc(N)c2ccccc2[n+]1CCCCCCCCCC[n+]1c(C)cc(N)c2ccccc21 | 0.121 | 0.516 µM and 1.55 µM | 0.218 | 1.99 µM and 13.8 µM | 0.168 |  | 0.212 µM and 0.249 µM | 6.77 µM and 6.72 µM and 11 µM |  |  | 0.277 µM and 1.18 µM | 1.33 µM and 5.09 µM and 3.28 µM | 1.38 | 4.01 µM and 4.43 µM |  | 
CCCCCCN1C(=O)CN=C1Nc1ccc2cc3ccc(NC4=NCC(=O)N4CCCCCC)cc3nc2c1 | 1.93 | 3.83 µM |  |  | 1.63 | 3.78 | 2.15 µM | 12.4 µM | 3.34 | 9.74 | 2.21 µM | 5.92 µM | 1.79 | 3.91 µM | 1.36 | 3.08
